Assay results: US20250049930A1, “PROTAC MOLECULES TARGETING FOXP3 AND USES THEREOF” (CEDARS-SINAI MEDICAL CENTER, priority 2022, published 2025)
“Also recorded” adds a separate entry of the source. No end group written: not given here.

System: RENCA tumors
Experiment: Subcutaneous RENCA tumor growth in mice
Type: in vivo
Details: s.c. RENCA in Balb/C mice, i.p. treatment from day 10, vs saline
Protocol: Mice: Balb/C mice, 5-8 weeks old, were purchased from Jackson laboratory (Ellsworth, Maine) and housed under pathogen free conditions. All experiments involving animals followed federal and state standards, which include the federal Animal Welfare Act and the NIH guide for the care and use of laboratory animals. The RENCA tumors were generated by subcutaneously injecting 2×10^5 tumor cells into the frank. The day tumor cells were injected was considered day 0. PF (0.1 mmol), PC (0.1 mmol) or P60 (100 ug) was administered i.p. twice a week starting on day 10; αPD1 (200 μg) was administered i.p. twice a week starting on day 5; temsirolimus (15 μg) was administered i.p. every other day, starting on day 10. All drugs were administered throughout the experimental course unless indicated. CD8 cells were depleted with a one-time αCD8 (200 μg) i.p. administration on day 2.
In cancer, Tregs can suppress the antitumor immune response, which is primarily mediated by CD8+ lymphocytes. Therefore, PF was administered to mice to enhance antitumor immunity and suppress growth of syngeneic mouse kidney cancer, which is considered an immunoresponsive cancer type. Mice tumors were established by injecting RENCA cells subcutaneously in the flank of Balb/C mice (5-7 mice per group). RENCA cells were injected subcutaneously to establish palpable tumors, and 10 days later mice were treated i.p., twice a week throughout the experiment, with PF, PC, P60 or Saline (FIG. 3D). Pomalidomide conjugated to (PEG)4 (PROTAC-control; PC) and P60 served as controls. […] In summary, PF decreased the immunosuppressive function of Tregs in vitro and decreased tumor growth in mice. […]
All immunotherapies, particularly when multi-drug combinations are involved, may have off-target effects. For example, drugs may have direct effects on the tumor, inhibiting tumor proliferation or inducing tumor apoptosis. Mice tumors were established by injecting RENCA cell subcutaneously in the flank of Balb/C mice (6-8 mice per group). 10 days later, mice were treated with PF twice per week. CD8 lymphocytes were depleted with αCD8 administered i.p. 2 days after injection of tumor cells. Mice in indicated groups received i.p. αPD1, twice a week, starting day 5 (FIG. 5A). Mice in indicated groups received i.p. temsirolimus every other day for 14 days, starting on days 10 (FIG. 5B). Tumor growth was monitored in these groups. […]

Compound	tumor growth, single agent
CO[C@H]1C[C@@H]2CC[C@@H](C)[C@@](O)(O2)C(=O)C(=O)N2CCCC[C@H]2C(=O)O[C@H]([C@H](C)C[C@@H]2CC[C@@H](OC(=O)C(C)(CO)CO)[C@H](OC)C2)CC(=O)[C@H](C)/C=C(\C)[C@@H](O)[C@@H](OC)C(=O)[C@H](C)C[C@H](C)/C=C/C=C/C=C/1C [temsirolimus]	suppressed tumor growth
RDFQSFRKMWPFFAM (not fully specified (some residues)) [P60]	Only PF produced a decrease in tumor growth; also recorded: no effect on RENCA tumor growth
